Values of other authors as cited in PMC3082041 (Cancer Chemotherapy and Pharmacology, 2010).

Tested on: patients
Conditions: treated with Imatinib; cited from earlier work

SMILES: Cc1ccc(NC(=O)c2ccc(CN3CCN(C)CC3)cc2)cc1Nc1nccc(-c2cccnc2)n1 [Imatinib]
- patients with grade 3/4 edema: 7%
